Measured values reported in patent publication US4473557A, “3"-Deoxystreptomycin production thereof and pharmaceutical compositions containing same” (Zaidan Hojin Biseibutsu Kagaku Kenkyu Kai, priority 1982, dated 1984).
≈ marks a conversion by molar mass, not a printed value. Read-outs that look alike come from different tables or passages of the source.

Assays:
[1] = system: resistant bacteria; settings: Kokai No. 105154/77; Journal of Antibiotics Vol. 29, 978 (1976); cited from earlier work
[2] = system: Pseudomonas aeruginosa No. 12; test: Minimum inhibitory concentration, serial dilution on nutrient agar; format: cell-based
Description: (§1) Minimum inhibitory concentrations (mcg/ml) of streptomycin and of the parent 3"-deoxydihydrostreptomycin were also estimated in the same manner as above for the comparison purpose and are shown in Table 1 below.

[3] = system: Escherichra coli ML 1630; test: as above; format: cell-based; settings: 37° C., 17 hours
Description: as §1

[4] = system: Mycobacterium smegmatis 607; test: as above; format: cell-based
Description: as §1

[5] = system: Staphylococcus aureus 209 P; test: as above; format: cell-based
Description: as §1

[6] = system: Salmonella typhi T-63; test: as above; format: cell-based; settings: Salmonella enterica, 17 h
Description: as §1

[7] = system: Escherichia coli ML 1629; test: as above; format: cell-based
Description: as §1

[8] = system: Bacillus subtilis NRRL B558; test: as above; format: cell-based
Description: as §1

[9] = system: Escherichia coli C600 R135; test: as above; format: cell-based; settings: C600R135, 17 h
Description: as §1

[10] = system: Escherichia coli W 677; test: as above; format: cell-based
Description: as §1

[11] = system: Sarcia lutea 1001; test: as above; format: cell-based; settings: 17 h
Description: as §1

[12] = system: Escherichia coli K-12; test: as above; format: cell-based
Description: as §1

[13] = system: Pseudomonas aeruginosa A3; test: as above; format: cell-based
Description: as §1

[14] = system: Escherichia coli JR66/W677; test: as above; format: cell-based; settings: 37° C., 17 hours
Description: as §1

[15] = system: streptomycin-resistant bacteria; test: Activity against streptomycin-resistant bacteria; format: cell-based; settings: variety of streptomycin-resistant bacteria
Description: as §1

[16] = in vivo; settings: mouse, iv
[17] = system: ICR mice; test: Acute toxicity by intravenous injection in mice; settings: dosage of 4 mg/kg (so in the source)
[18] = Pseudomonas aeruginosa No. 12, nutrient agar, 37° C., 17 hours, read-out: MIC.
[19] = Mycolicibacterium smegmatis, Mycobacterium smegmatis 607, nutrient agar, 37° C., 17 hours, read-out: MIC.
[20] = Staphylococcus aureus, 209P, 17 h
[21] = NRRLB558, Bacillus subtilis NRRL B558, nutrient agar, 37° C., 17 hours, read-out: MIC.
[22] = W677, Escherichia coli W 677, nutrient agar, 37° C., 17 hours, read-out: MIC.
[23] = K12, Escherichia coli K-12, nutrient agar, 37° C., 17 hours, read-out: MIC.
[24] = Pseudomonas aeruginosa A3, nutrient agar, 37° C., 17 hours, read-out: MIC.

Compound | MIC [2, 18] | MIC [3] | MIC [4, 19] | MIC [5, 20] | MIC [6] | MIC ([7]; Escherichia coli, ML1629, 17 h) | MIC [8, 21] | MIC [9] | MIC [10, 22] | MIC [11] | MIC [12, 23] | MIC [13, 24] | MIC [14] | further results
CNC1CC(O)C(CO)OC1OC1C(OC2C(O)C(O)C(NC(=N)N)C(O)C2NC(=N)N)OC(C)C1(O)CO (stereo not shown) [3"-Deoxydihydrostreptomycin, 3"-deoxydihydrostreptomycin] | 25 µg/mL (≈ 44 µM) | 1.56 µg/mL (≈ 2.75 µM) | 0.78 µg/mL (≈ 1.37 µM) | 3.12 µg/mL (≈ 5.5 µM) | 3.12 µg/mL (≈ 5.5 µM) | 3.12 µg/mL (≈ 5.5 µM) | 1.56 µg/mL (≈ 2.75 µM) | 3.12 µg/mL (≈ 5.5 µM) | 1.56 µg/mL (≈ 2.75 µM) | 3.12 µg/mL (≈ 5.5 µM) | 1.56 µg/mL (≈ 2.75 µM) | 12.5 µg/mL (≈ 22 µM) | 12.5 µg/mL (≈ 22 µM) | activity against the resistant bacteria [1]: active against the resistant bacteria
CNC1CC(O)C(CO)OC1OC1C(OC2C(O)C(O)C(NC(=N)N)C(O)C2NC(=N)N)OC(C)C1(O)C=O (stereo not shown) [3"-Deoxystreptomycin, 3"-deoxystreptomycin] | 25 µg/mL (≈ 44.2 µM) | 3.12 µg/mL (≈ 5.52 µM) | 0.78 µg/mL (≈ 1.38 µM) | – | 0.78 µg/mL (≈ 1.38 µM) | – | 1.56 µg/mL (≈ 2.76 µM) | 3.12 µg/mL (≈ 5.52 µM) | 1.56 µg/mL (≈ 2.76 µM) | 1.56 µg/mL (≈ 2.76 µM) | 1.56 µg/mL (≈ 2.76 µM) | 6.25 µg/mL (≈ 11.1 µM) | 12.5 µg/mL (≈ 22.1 µM) | activity against streptomycin-resistant bacteria [15]: active against a variety of streptomycin-resistant bacteria; MIC ([5]; Staphylococcus aureus 209 P, nutrient agar, 37° C., 17 hours, read-out: MIC.): 3.12 µg/mL (≈ 5.52 µM); MIC ([7]; ML1629, Escherichia coli ML 1629, nutrient agar, 37° C., 17 hours, read-out: MIC.): 1.56 µg/mL (≈ 2.76 µM); LD50 at 336 h [16]: > 200 mg/kg; survival for more than 14 days [17]: all the treated mice survived for more than 14 days
[H]/N=C(/N)N[C@H]1[C@H](O)[C@@H](O)[C@H](O[C@@H]2O[C@@H](C)[C@](O)(C=O)[C@H]2O[C@@H]2O[C@@H](CO)[C@H](O)[C@@H](O)[C@@H]2NC)[C@@H](N/C(N)=N\[H])[C@@H]1O [Streptomycin, streptomycin] | – | > 100 µg/mL | – | 3.12 µg/mL (≈ 5.36 µM) | 25 µg/mL (≈ 43 µM) | 100 µg/mL (≈ 172 µM) | – | 50 µg/mL (≈ 86 µM) | – | 1.56 µg/mL (≈ 2.68 µM) | – | – | > 100 µg/mL | MIC ([2]; Pseudomonas aeruginosa, NO.12, 17 h): 25 µg/mL (≈ 43 µM); MIC ([4]; Mycolicibacterium smegmatis, 607, 17 h): 1.56 µg/mL (≈ 2.68 µM); MIC ([8]; Bacillus subtilis, NRRLB558, 17 h): 0.78 µg/mL (≈ 1.34 µM); MIC ([10]; Escherichia coli, W677, 17 h): 1.56 µg/mL (≈ 2.68 µM); MIC ([12]; Escherichia coli, K12, 17 h): 1.56 µg/mL (≈ 2.68 µM); MIC ([13]; Pseudomonas aeruginosa, A3, 17 h): 6.25 µg/mL (≈ 10.7 µM)
